Experimental data reported in patent publication US6355799B1, “Substituted benzene compounds, process for their preparation, and herbicidal and defoliant compositions containing them” (ISK Americas Incorporated, priority 1997, dated 2002).

What was measured:
Type in all cases: in vivo
[1] = system: redroot pigweed (Amaranthus retroflexus, AMARE); test: Pre-emerge test, greenhouse herbicide activity screening; conditions: pre-emerge, 14 days after application, rating scale 0-100
Method in brief: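 Sandy loam pots; pre-emerge: sown 1 d pre-spray, surface-watered after, then bottom-watered. Post-emerge: sown 8–21 d before, 2–3 leaf stage, + 0.25% v/v NIS, bottom-watered. Acetone, 187 l/ha track spray, 15–1000 g ai/ha. 0–100 injury score, day 14.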

[2] = system: barnyardgrass (Echinochloa crus-galli, ECHCG); test: as above; conditions: pre-emerge, 14 days after application, rating scale 0-100
Method in brief: (§1)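 Compounds in acetone were track-sprayed at 15–1000 g ai/ha: pre-emergence onto soil sown the previous day, then top-watered to incorporate and later bottom-watered; post-emergence onto 2–3 leaf plants with 0.25% v/v surfactant, bottom-watered only. Ratings on a 0–100 phytotoxicity scale were taken at day 14.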

[3] = system: green foxtail (Setaria viridis, SETVI); test: as above; conditions: pre-emerge, 14 days after application, rating scale 0-100
Method in brief: as §1

[4] = system: ivyleaf morningglory (Ipomoea hederacea, IPOHE); test: as above; conditions: pre-emerge, 14 days after application, rating scale 0-100
Method in brief: as §1

[5] = system: johnsongrass (Sorghum halepense, SORHA); test: as above; conditions: pre-emerge, 14 days after application, rating scale 0-100
Method in brief: as §1

[6] = system: lambsquarters (Chenopodium album, CHEAL); test: as above; conditions: pre-emerge, 14 days after application, rating scale 0-100
Method in brief: as §1

[7] = system: large crabgrass (Digitaria sanguinalis, DIGSA); test: as above; conditions: pre-emerge, 14 days after application, rating scale 0-100
Method in brief: as §1

[8] = system: sicklepod (Cassia obtusifolia, CASOB); test: as above; conditions: pre-emerge, 14 days after application, rating scale 0-100
Method in brief: as §1

[9] = system: velvetleaf (Abutilon theophrasti, ABUTH); test: as above; conditions: pre-emerge, 14 days after application, rating scale 0-100
Method in brief: as §1

[10] = system: field corn (Zea mays L., var. Dekalb 535, CORN); test: Pre-emerge test, crop safety; conditions: pre-emerge, 14 days after application, rating scale 0-100
Method in brief: (§2)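 Compounds in acetone were track-sprayed at 15-1000 g ai/ha (187 l/ha) on sandy loam pots: pre-emerge one day after seeding, post-emerge at 2-3 leaf stage with 0.25% v/v non-ionic surfactant. Phytotoxicity was rated 14 days later on a 0 (no damage) to 100 (complete death) scale.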

[11] = system: upland rice (Oryza sp., var. Tebonnet, RICE); test: Pre-emerge test, crop safety; conditions: pre-emerge, 14 days after application, rating scale 0-100
Method in brief: as §2

[12] = system: barnyardgrass (Echinochloa crus-galli, ECHCG); test: Post-emerge test, greenhouse herbicide activity screening; conditions: post-emerge, 14 days after application, rating scale 0-100
Method in brief: (§3)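 Applied at 15–1000 g ai/ha from acetone in 187 l/ha spray volume. Post-emergence applications included 0.25% v/v non-ionic surfactant and reached plants sown 8–21 days before. Pre-emergence applications were incorporated by surface watering. Efficacy or crop damage was rated on a 0–100 scale after 14 days.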

[13] = system: green foxtail (Setaria viridis, SETVI); test: as above; conditions: post-emerge, 14 days after application, rating scale 0-100
Method in brief: as §3

[14] = system: ivyleaf morningglory (Ipomoea hederacea, IPOHE); test: as above; conditions: post-emerge, 14 days after application, rating scale 0-100
Method in brief: as §3

[15] = system: johnsongrass (Sorghum halepense, SORHA); test: as above; conditions: post-emerge, 14 days after application, rating scale 0-100
Method in brief: as §3

[16] = system: lambsquarters (Chenopodium album, CHEAL); test: as above; conditions: post-emerge, 14 days after application, rating scale 0-100
Method in brief: as §3

[17] = system: large crabgrass (Digitaria sanguinalis, DIGSA); test: as above; conditions: post-emerge, 14 days after application, rating scale 0-100
Method in brief: as §3

[18] = system: redroot pigweed (Amaranthus retroflexus, AMARE); test: as above; conditions: post-emerge, 14 days after application
Method in brief: as §3

[19] = system: sicklepod (Cassia obtusifolia, CASOB); test: as above; conditions: post-emerge, 14 days after application, rating scale 0-100
Method in brief: as §3

[20] = system: velvetleaf (Abutilon theophrasti, ABUTH); test: as above; conditions: post-emerge, 14 days after application, rating scale 0-100
Method in brief: as §3

[21] = system: field corn (Zea mays L., var. Dekalb 535, CORN); test: Post-emerge test, crop safety; conditions: post-emerge, 14 days after application, rating scale 0-100
Method in brief: (§4)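 Rating: 0–100 visual injury, 14 DAA. Application: acetone, 187 l/ha, 15–1000 g ai/ha, flat-fan track sprayer with nozzle 40–45 cm above soil or canopy. Post-emerge runs used 0.25% v/v surfactant on 2–3 leaf plants.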

[22] = system: upland rice (Oryza sp., var. Tebonnet, RICE); test: Post-emerge test, crop safety; conditions: post-emerge, 14 days after application, rating scale 0-100
Method in brief: as §4

COc1cc(Cl)cc(Cl)c1-n1c(=O)cc(C(F)(F)F)n(C)c1=O [16-2]
phytotoxicity rating AMARE ([1]; 63 g ai/ha): 40
phytotoxicity rating AMARE ([1]; 250 g ai/ha): 100
phytotoxicity rating ECHCG ([2]; 63 g ai/ha): 0
phytotoxicity rating ECHCG ([2]; 250 g ai/ha): 10
phytotoxicity rating SETVI ([3]; 63 g ai/ha): 10
phytotoxicity rating SETVI ([3]; 250 g ai/ha): 60
phytotoxicity rating IPOHE ([4]; 63 g ai/ha): 10
phytotoxicity rating IPOHE ([4]; 250 g ai/ha): 50
phytotoxicity rating SORHA ([5]; 63 g ai/ha): 0
phytotoxicity rating SORHA ([5]; 250 g ai/ha): 30
phytotoxicity rating CHEAL ([6]; 63 g ai/ha): 80
phytotoxicity rating CHEAL ([6]; 250 g ai/ha): 100
phytotoxicity rating DIGSA ([7]; 63 g ai/ha): 0
phytotoxicity rating DIGSA ([7]; 250 g ai/ha): 50
phytotoxicity rating CASOB ([8]; 63 g ai/ha): 0
phytotoxicity rating CASOB ([8]; 250 g ai/ha): 60
phytotoxicity rating ABUTH ([9]; 63 g ai/ha): 75
phytotoxicity rating ABUTH ([9]; 250 g ai/ha): 100
phytotoxicity rating CORN ([10]; 63 g ai/ha): 0
phytotoxicity rating CORN ([10]; 250 g ai/ha): 0
phytotoxicity rating RICE ([11]; 63 g ai/ha): 0
phytotoxicity rating RICE ([11]; 250 g ai/ha): 0
Post-emerge Herbicidal Activity ECHCG (phytotoxicity rating) ([12]; 63 g ai/ha): 0
Post-emerge Herbicidal Activity ECHCG (phytotoxicity rating) ([12]; 250 g ai/ha): 0
Post-emerge Herbicidal Activity SETVI (phytotoxicity rating) ([13]; 63 g ai/ha): 0
Post-emerge Herbicidal Activity SETVI (phytotoxicity rating) ([13]; 250 g ai/ha): 0
Post-emerge Herbicidal Activity IPOHE (phytotoxicity rating) ([14]; 63 g ai/ha): 0
Post-emerge Herbicidal Activity IPOHE (phytotoxicity rating) ([14]; 250 g ai/ha): 0
Post-emerge Herbicidal Activity SORHA (phytotoxicity rating) ([15]; 63 g ai/ha): 0
Post-emerge Herbicidal Activity SORHA (phytotoxicity rating) ([15]; 250 g ai/ha): 0
Post-emerge Herbicidal Activity CHEAL (phytotoxicity rating) ([16]; 63 g ai/ha): 30
Post-emerge Herbicidal Activity CHEAL (phytotoxicity rating) ([16]; 250 g ai/ha): 70
Post-emerge Herbicidal Activity DIGSA (phytotoxicity rating) ([17]; 63 g ai/ha): 0
Post-emerge Herbicidal Activity DIGSA (phytotoxicity rating) ([17]; 250 g ai/ha): 0
Post-emerge Herbicidal Activity AMARE (phytotoxicity rating) ([18]; 63 g ai/ha, rating scale 0-100 (0 no damage, 100 complete death)): 60
Post-emerge Herbicidal Activity AMARE (phytotoxicity rating) ([18]; 250 g ai/ha, rating scale 0-100): 60
Post-emerge Herbicidal Activity CASOB (phytotoxicity rating) ([19]; 63 g ai/ha): 0
Post-emerge Herbicidal Activity CASOB (phytotoxicity rating) ([19]; 250 g ai/ha): 10
Post-emerge Herbicidal Activity ABUTH (phytotoxicity rating) ([20]; 63 g ai/ha): 40
Post-emerge Herbicidal Activity ABUTH (phytotoxicity rating) ([20]; 250 g ai/ha): 70
Post-emerge Herbicidal Activity CORN (crop damage rating) ([21]; 63 g ai/ha): 0
Post-emerge Herbicidal Activity CORN (crop damage rating) ([21]; 250 g ai/ha): 10
Post-emerge Herbicidal Activity RICE (crop damage rating) ([22]; 63 g ai/ha): 0
Post-emerge Herbicidal Activity RICE (crop damage rating) ([22]; 250 g ai/ha): 20
